Measurements taken from patent US11325937B2, “Glycoside compound and preparation method therefor, composition, application, and intermediate” (SHANGHAI HUTCHISON PHARMACEUTICALS LIMITED, priority 2018, dated 2022).
Read-outs that look alike come from different tables or passages of the source.

Tested on: VEGF-A mRNA expression in macrophages (RAW264.7)
Assay: In vitro macrophage experiment: activity of compounds to promote VEGF-A mRNA expression (RT-qPCR)
Assay type: cell-based
Settings: Mus musculus, read-out: Expression level of VEGF-A mRNA
From the text: 1.1. Specific steps for activity screening: 1-10×10^6 macrophages (RAW264.7) in logarithmic growth phase were transferred to a cell culture plate. The test compounds (Compounds TG-001, TG-002, TG-003, TG-004, TG-005, TG-006, TG-007, TG-008, TG-009, TG-010, TG-011, TG-012, TG-013, TG-014, TG-015, TG-016, TG-017, TG-018, TG-019, TG-020, TG-021, TG-022, TG-023, TG-024, TG-025, TG-026, TG-027, TG-028, TG-029, TG-030, TG-031, TG-032, TG-033, TG-034, TG-035, TG-036, TG-037, TG-045, TG-039, TG-040 TG-041, TG-042, TG-043, TG-044, TG-045, TG-052, TG-053, TG-054, TG-047, TG-048, TG-046, TG-049, TG-050, TG-051, TG-055 and TG-056) were respectively diluted into various concentrations, and separately added to the cell culture plate containing macrophage. The cells were cultured for 3 h in a complete medium (RPMI 1640 medium:fetal bovine serum:tri-resistance screening agent (i.e. penicillin-streptomycin-gentamicin, Beijing Leagene Biotechnology Co., Ltd.)=89:10:1 based on volume) in a cell incubator at 37° C. and 5% CO2. The cells were lyzed by Trizol (Beijing ComWin Biotech Co., Ltd) to extract RNA, and the RNA concentration was measured using a microvolume nucleic acid and protein analyzer (Nanodrop2000c). The required volume V of RNA was calculated according to the RNA concentration, and the RNA reverse transcription reaction system was prepared according to Table 1. Then RNA reverse transcription (cDNA synthesis) (RT Easy™ I (For first-strand cDNA synthesis) Reverse Transcription Kit, Chengdu ForeGene Biotechnology Co., Ltd.) was carried out according to the conditions described in Table 2. The resulting cDNA was used to prepare a fluorescence quantitative PCR reaction solution according to Table 3. The fluorescence quantitative PCR reaction conditions were set according to Table 4, and the fluorescence quantitative PCR reaction (Real time PCR Easy™-SYBR Green Fluorescence Quantification Kit, Chengdu ForeGene Biotechnology Co., Ltd.) was performed using cDNA from the reverse transcription reaction as a template. The relative expression level 2^−ΔΔCt of the target gene was calculated from the Ct value of each sample with the blank control group as a control and β-Actin as an internal reference.
Based on the maximum level of VEGF-A mRNA expression promoted by a drug at a certain concentration, the activity of the drug was determined. The expression level of VEGF-A mRNA in macrophages was defined as 1 when no drug was added. Using a traditional Chinese medicine injection Salvianolate that is used in the treatment of Cardio-cerebrovascular disease and promotes a maximum level of VEGF-A mRNA expression of 6 in macrophages (the results are shown in Table 5) as a judgment standard, the compound promoting a maximum level of VEGF-A mRNA expression of 4 or more in macrophage was a target compound. That is, when the maximum level of VEGF-A mRNA expression in macrophages promoted by the test compound is over 4-fold higher than the expression level of VEGF-A mRNA in macrophages without the addition of the test compound, the test compound was a preliminary target compound promoting angiogenesis.

[1] = 1 μM, RAW264.7 macrophages, 3 h, relative expression 2^-ΔΔCt, no drug = 1
[2] = 0.1 mM, RAW264.7 macrophages, 3 h, relative expression, no drug = 1
[3] = 0.5 mM, RAW264.7 macrophages, 3 h, relative expression, no drug = 1
[4] = 1 mM, RAW264.7 macrophages, 3 h, relative expression, no drug = 1
[5] = 2 mM, RAW264.7 macrophages, 3 h, relative expression, no drug = 1
[6] = 3 mM, RAW264.7 macrophages, 3 h, relative expression, no drug = 1

SMILES	fold induction at 1 µM [1]	fold induction at 100 µM [2]	fold induction at 500 µM [3]	fold induction at 1000 µM [4]	fold induction at 2000 µM [5]	fold induction at 3000 µM [6]	fold induction at 1 µM (RAW264.7, 3 h)	fold induction at 100 µM (RAW264.7, 3 h)	fold induction at 500 µM (RAW264.7, 3 h)	fold induction at 1000 µM (RAW264.7, 3 h)	fold induction at 2000 µM (RAW264.7, 3 h)	fold induction at 3000 µM (RAW264.7, 3 h)
OC[C@H]1O[C@@H](OCCCCc2ccc(OCc3ccc(C(F)(F)F)cc3)cc2)[C@H](O)[C@@H](O)[C@@H]1O [TG-026]	1.44	6.85	7.92	8.13	7.92	8.16	–	–	–	–	–	–
OC[C@H]1O[C@@H](OCCCCc2ccc(OCc3cccc(F)c3)cc2)[C@H](O)[C@@H](O)[C@@H]1O [TG-027]	1.66	6.36	3.83	3.93	1.07	0.43	–	–	–	–	–	–
COc1ccc(CCCCO[C@H]2O[C@@H](CO)[C@H](O)[C@@H](O)[C@@H]2O)cc1 [TG-029]	2.21	1.51	1.02	1.54	2.6	2.3	–	–	–	–	–	–
COc1ccc(CCCCO[C@@H]2O[C@H](CO)[C@H](O)[C@H](O)[C@H]2O)cc1 [TG-030]	0.43	0.32	0.09	0.19	0.19	0.37	–	–	–	–	–	–
COc1ccc(OCCCO[C@@H]2O[C@H](CO)[C@@H](O)[C@H](O)[C@H]2O)cc1 [TG-031]	–	–	–	–	–	–	0.2	0.18	0.11	2.57	1.39	0.7
COc1ccc(COCCO[C@@H]2O[C@H](CO)[C@@H](O)[C@H](O)[C@H]2O)cc1 [TG-032]	–	–	–	–	–	–	2.79	4.89	0.92	3.68	1.83	0.96
COc1ccc(CN(CCO[C@@H]2O[C@H](CO)[C@@H](O)[C@H](O)[C@H]2O)C(=O)OC(C)(C)C)cc1 [TG-033]	–	–	–	–	–	–	0.95	1.87	38.9	3.76	0.99	0.04
COc1ccc(CN(CCO[C@@H]2O[C@H](CO)[C@@H](O)[C@H](O)[C@H]2O)C(=O)OCc2ccccc2)cc1 [TG-034]	–	–	–	–	–	–	1.36	1.32	4.44	2.93	7.16	5.43
COc1ccc(N(CCCO[C@@H]2O[C@H](CO)[C@@H](O)[C@H](O)[C@H]2O)C(=O)OCc2ccccc2)cc1 [TG-035]	–	–	–	–	–	–	1.66	0.44	1.72	1.06	0.55	0.2
COc1ccc(CNCCO[C@@H]2O[C@H](CO)[C@@H](O)[C@H](O)[C@H]2O)cc1 [TG-036]	–	–	–	–	–	–	1.19	1.39	0.32	1.09	0.43	1.75
COc1ccc(NCCCO[C@@H]2O[C@H](CO)[C@@H](O)[C@H](O)[C@H]2O)cc1 [TG-037]	–	–	–	–	–	–	1.3	0.62	1.77	1.69	1.8	3.23
CC(C)Oc1ccc(CCCCO[C@@H]2O[C@H](CO)[C@@H](O)[C@H](O)[C@H]2O)cc1 [TG-038]	0.79	1.06	0.96	1.71	1.32	1.29	–	–	–	–	–	–
OC[C@H]1O[C@@H](OCCCCc2ccc(OCC3CC3)cc2)[C@H](O)[C@@H](O)[C@@H]1O [TG-039]	1.18	2.67	9.43	1.7	0.3	0.18	–	–	–	–	–	–
CC(C)(C)CCOc1ccc(CCCCO[C@@H]2O[C@H](CO)[C@@H](O)[C@H](O)[C@H]2O)cc1 [TG-040]	2.09	3.97	1.46	0.81	0.22	0.28	–	–	–	–	–	–
CC(C)(C)COc1ccc(CCCCO[C@@H]2O[C@H](CO)[C@@H](O)[C@H](O)[C@H]2O)cc1 [TG-041]	0.62	0.84	1.97	8.17	0.16	0.23	–	–	–	–	–	–
CC1(C)CCOc2ccc(CCCCO[C@@H]3O[C@H](CO)[C@@H](O)[C@H](O)[C@H]3O)cc21 [TG-042]	11	7.25	9.86	1.11	0.63	0.84	–	–	–	–	–	–
CCCCCCCCCCCCCCCCOc1ccc(CCCCO[C@@H]2O[C@H](CO)[C@@H](O)[C@H](O)[C@H]2O)cc1 [TG-043]	1.16	1.52	–	3.36	4.09	4.29	–	–	–	–	–	–
COCCOCCOCCOCCOc1ccc(CCCCO[C@@H]2O[C@H](CO)[C@@H](O)[C@H](O)[C@H]2O)cc1 [TG-044]	0.65	1.18	1.56	1.04	0.79	0.95	–	–	–	–	–	–
COc1ccc(CCCCO[C@@H]2O[C@H](CO)[C@@H](O[C@@H]3OC(CO)[C@H](O)[C@H](O)[C@H]3O)[C@H](O)[C@H]2O)cc1 (some centres unmarked) [TG-045]	0.62	0.99	0.62	0.73	1.78	0.35	–	–	–	–	–	–
COc1ccc(CCCCO[C@H]2O[C@H](CO)[C@@H](O)[C@H](O)[C@H]2O)cc1 [TG-046]	1.86	1.96	2.14	2.27	2.25	5.32	–	–	–	–	–	–
COc1ccc(CCS[C@@H]2O[C@H](CO)[C@@H](O)[C@H](O)[C@H]2O)cc1 [TG-047]	2.12	1.93	2.34	2.84	2.6	3.45	–	–	–	–	–	–
COc1ccc(CCCCS[C@@H]2O[C@H](CO)[C@@H](O)[C@H](O)[C@H]2O)cc1 [TG-048]	1.43	1.26	4.73	11	3.81	2.19	–	–	–	–	–	–
OC[C@H]1O[C@@H](OCCCCc2ccc(OCc3ccccc3F)cc2)[C@H](O)[C@@H](O)[C@@H]1O [TG-050]	1.27	2.81	1.85	2.16	1.74	15.1	–	–	–	–	–	–
